Source: PMC6566410, “Novel Diamide-Based Benzenesulfonamides as Selective Carbonic Anhydrase IX Inhibitors Endowed with Antitumor Activity: Synthesis, Biological Evaluation and In Silico Insights” (International Journal of Molecular Sciences, 2019)

Assays:
[1] = tested on: renal cancer UO-31 cell line; test: MTT anti-proliferative assay; type: cell-based; settings: Homo sapiens, mean ± S.D. of three separate experiments
Procedure: Staurosporine was adopted in the experiment as a reference anticancer drug.
Renal cancer UO-31 cell line was obtained from American Type Culture Collection (ATCC). UO-31 cells were seeded into 96-well plates at 1.8 x 10^4/well. Cells were grown in DMEM, and supplemented with 10% heat-inactivated fetal bovine serum, 1% L-glutamine (2.5 mM), HEPES buffer (10 mM), 50 μg/mL gentamycin.

UO-31 cells [2] = test: cell cycle analysis, DNA flow cytometry; type: cell-based, human; settings: UO-31, at IC50 concentration, 24 h
Procedure: The effect of diamide-based benzenesulfonamides 5a and 5h on cell cycle progression was examined in renal UO-31 cancer cells, through a DNA flow cytometric assay (Figure 3).
Then, the treated cells were collected by centrifugation, fixed in ice-cold 70% (v/v) ethanol, washed with PBS, re-suspended with RNase (100 μg/mL), stained with PI (40 μg/mL), and analyzed by flow cytometry using FACS Calibur (Becton Dickinson, BD, USA). The cell cycle distributions were calculated utilizing CellQuest software 5.1 (Becton Dickinson).

UO-31 cells [3] = test: Annexin V-FITC/PI apoptosis assay; type: cell-based, human; settings: for late apoptotic cells (UR) / early apoptotic cells (LR): UO-31, annexin V-FITC/PI; for late apoptotic cells (UR): control 0.29%; for early apoptotic cells (LR): control 0.85%
Procedure: To explore whether the anti-proliferative activity of diamide-based sulfonamides 5a and 5h is consistent with the induction of apoptosis within the UO-31 cancer cells, Annexin V-FITC/propidium iodide (AV/PI) dual staining assay was performed by flow cytometry (Figure 4).
Assay of the phosphatidylserine externalization was carried out using Annexin V-FITC/PI apoptosis detection kit (BD Biosciences, San Jose, CA, USA) following the manufacturer’s instructions, as reported previously.

OVCAR-5 = test: NCI one-dose SRB assay; type: cell-based; settings: Homo sapiens, OVCAR-5 (Ovarian Cancer), 1.00E-5 Molar, read-out: Growth Percent
Summary of the method: (§1)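 Using the US-NCI one-dose format, the sixty cancer cell lines received compound at 10^−5 M, and sulforhodamine B colorimetry was used to assess growth and viability.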

TK-10 = test: NCI one-dose SRB assay; type: cell-based; settings: Homo sapiens, TK-10 (Renal Cancer), 1.00E-5 Molar, read-out: Growth Percent
Summary of the method: as §1

SR = test: NCI one-dose SRB assay; type: cell-based, human; settings: SR (Leukemia), 1.00E-5 Molar
Procedure: (§2) First, all diamide-based benzenesulfonamides herein reported 5a–h were screened for their antitumor activity at one dose (10^−5 M) assay against a panel of sixty cancer cell lines through the National Cancer Institute (NCI) Developmental Therapeutic Program (www.dtp.nci.nih.gov), according to US-NCI protocol. The cell growth and cell viability were evaluated using the sulforhodamine B (SRB) colorimetric assay.
(§3) This assay was carried out according to the protocol of the Drug Evaluation Branch, NCI, Bethesda. The cell growth and cell viability were evaluated using the sulforhodamine B (SRB) colorimetric assay, as reported earlier.

hCA II = hCA II (Homo sapiens, UniProt P00918); test: stopped-flow CO2 hydrase assay
Excerpt: An Applied Photophysics stopped-flow instrument was used for assaying the CA catalysed CO2 hydration activity, as reported earlier [17]. The inhibition constants were obtained by non-linear least-squares methods using PRISM 3 and the Cheng-Prusoff equation as reported earlier, and represent the mean from at least three different determinations. The four tested CA isofoms were recombinant ones obtained in-house as reported earlier [26, 27, 28, 29].

BT-549 = test: NCI one-dose SRB assay; type: cell-based, human; settings: BT-549 (Breast Cancer), 1.00E-5 Molar
Procedure: as §2, §3

| Compound | IC50 [1] | arrest in G2-M phase compared to control (UO-31 cells [2]) | increase in percentage of cells at Sub-G1 compared to control (UO-31 cells [2]) | late apoptotic cells (UR) (UO-31 cells [3]) | early apoptotic cells (LR) (UO-31 cells [3]) | activity at 10 µM (OVCAR-5) | activity at 10 µM (TK-10) | Growth Percent (SR) | Ki (hCA II) | Growth Percent (BT-549) | total increase in annexin V-FITC positive apoptotic cells (UR + LR) compared with control (UO-31 cells [3]; UO-31) |
| --- | --- | --- | --- | --- | --- | --- | --- | --- | --- | --- | --- |
| NS(=O)(=O)c1ccc(NC(=O)C(=Cc2ccc(Cl)cc2)NC(=O)c2ccccc2)cc1 [Compound 5a, N-(1-(4-Chlorophenyl)-3-oxo-3-((4-sulfamoylphenyl)amino)prop-1-en-2-yl)benzamide] | 6530 ± 380 nM | 2.2 fold | 14 fold | 22.96% | 2.64% | 105% | 96.6% | 96.44% | 68.3 nM | – | – |
| NS(=O)(=O)c1ccc(NC(=O)C(=Cc2ccc(Cl)cc2Cl)NC(=O)c2ccccc2)cc1 [Compound 5b, N-(1-(2,4-Dichlorophenyl)-3-oxo-3-((4-sulfamoylphenyl)amino)prop-1-en-2-yl)benzamide] | 16700 ± 920 nM | – | – | – | – | 108% | 104% | 96.62% | 224 nM | 89.13% | – |
| NS(=O)(=O)c1ccc(NC(=O)C(=Cc2ccc(Br)cc2)NC(=O)c2ccccc2)cc1 [Compound 5c, N-(1-(4-Bromophenyl)-3-oxo-3-((4-sulfamoylphenyl)amino)prop-1-en-2-yl)benzamide] | – | – | – | – | – | 99.8% | 102% | 88.11% | 252 nM | – | – |
| Cc1ccc(C=C(NC(=O)c2ccccc2)C(=O)Nc2ccc(S(N)(=O)=O)cc2)cc1 [Compound 5d, N-(3-Oxo-3-((4-sulfamoylphenyl)amino)-1-(p-tolyl)prop-1-en-2-yl)benzamide] | – | – | – | – | – | 103% | 104% | 85.23% | 94.4 nM | 105.04% | – |
| COc1ccc(C=C(NC(=O)c2ccccc2)C(=O)Nc2ccc(S(N)(=O)=O)cc2)cc1 [Compound 5e, N-(1-(4-Methoxyphenyl)-3-oxo-3-((4-sulfamoylphenyl)amino)prop-1-en-2-yl)benzamide] | – | – | – | – | – | 108% | 107% | 88.45% | 128 nM | – | – |
| COc1ccc(C=C(NC(=O)c2ccccc2)C(=O)Nc2ccc(S(N)(=O)=O)cc2)c(OC)c1 [Compound 5f, N-(1-(2,4-Dimethoxyphenyl)-3-oxo-3-((4-sulfamoylphenyl)amino)prop-1-en-2-yl)benzamide] | – | – | – | – | – | 106% | 112% | 95.41% | 294 nM | – | – |
| COc1ccc(C=C(NC(=O)c2ccccc2)C(=O)Nc2ccc(S(N)(=O)=O)cc2)cc1OC [Compound 5g, N-(1-(3,4-Dimethoxyphenyl)-3-oxo-3-((4-sulfamoylphenyl)amino)prop-1-en-2-yl)benzamide] | – | – | – | – | – | 103% | 110% | 82.62% | 448 nM | – | – |
| Cc1ccc(C=C(NC(=O)c2ccccc2)C(=O)Nc2ccc(S(N)(=O)=O)cc2)o1 [Compound 5h, N-(1-(5-Methylfuran-2-yl)-3-oxo-3-((4-sulfamoylphenyl)amino)prop-1-en-2-yl)benzamide] | 4890 ± 220 nM | 2.5 fold | 15.5 fold | 21.85% | 8.41% | 100% | 112% | – | 115 nM | – | 26.5 fold |
